“And” between values parts separate entries of the source, which are not always exact repeats. Identical values can stand only once. “Also recorded” adds a separate entry of the source. Like-named read-outs stand apart in the source and are kept apart here. Values belong to the compound of their own block, whether it stands above or below them.
Legend:
[1] = target: T1, ENPP1 in the MDA-MB-231 cell line (Homo sapiens, UniProt P22413); test: Cellular ENPP1 enzymatic inhibition assay in MDA-MB-231 cells (pNP-TMP); assay type: cell-based; settings: 4 h incubation, 200 μM pNP-TMP; three independent cell assays; read-out: IC50 against ENPP1 in MDA-MB-231 cell line
T1 construct: MDA-MB-231 cells highly expressed ENPP1; endogenous in cells; host or cells: MDA-MB-231
T1 sequence (P22413 1-925): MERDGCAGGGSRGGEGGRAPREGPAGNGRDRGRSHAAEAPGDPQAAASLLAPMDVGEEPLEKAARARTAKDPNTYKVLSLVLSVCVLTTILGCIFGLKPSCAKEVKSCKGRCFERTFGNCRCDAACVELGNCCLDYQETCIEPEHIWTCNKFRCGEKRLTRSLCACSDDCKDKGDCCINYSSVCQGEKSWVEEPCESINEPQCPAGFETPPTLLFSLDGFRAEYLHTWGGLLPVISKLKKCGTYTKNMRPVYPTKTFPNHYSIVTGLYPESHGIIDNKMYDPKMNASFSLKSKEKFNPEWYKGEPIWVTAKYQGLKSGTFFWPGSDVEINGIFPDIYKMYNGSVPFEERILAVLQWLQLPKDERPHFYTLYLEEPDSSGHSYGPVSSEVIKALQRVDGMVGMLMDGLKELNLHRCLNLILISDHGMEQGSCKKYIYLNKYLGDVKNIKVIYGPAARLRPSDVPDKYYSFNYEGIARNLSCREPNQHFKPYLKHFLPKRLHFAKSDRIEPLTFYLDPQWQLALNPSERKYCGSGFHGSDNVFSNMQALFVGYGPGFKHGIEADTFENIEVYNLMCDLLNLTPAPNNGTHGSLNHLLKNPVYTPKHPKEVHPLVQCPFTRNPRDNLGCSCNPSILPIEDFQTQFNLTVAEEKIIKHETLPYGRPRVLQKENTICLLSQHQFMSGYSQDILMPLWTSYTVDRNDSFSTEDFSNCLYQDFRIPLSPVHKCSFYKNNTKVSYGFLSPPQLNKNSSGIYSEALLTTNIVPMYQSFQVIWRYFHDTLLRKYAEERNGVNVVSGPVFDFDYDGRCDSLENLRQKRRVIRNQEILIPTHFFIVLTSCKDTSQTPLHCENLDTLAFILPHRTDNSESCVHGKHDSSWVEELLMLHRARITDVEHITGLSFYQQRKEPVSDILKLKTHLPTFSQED
Protocol: MDA-MB-231 (1.0 × 10^4 cells/well) were grown on 96-well microplates (IWAKI) overnight in the culture medium (100 μL/well) in a humidified incubator containing 5% CO2 in air at 37 °C for 24 h. The plates were washed with D-Hanks (100 μL) twice, and fresh D-Hanks (80 μL) was added. 5% DMSO or test compound (10 μL) was added to each well, and eventually pNP-TMP (2 mM, 10 μL, final 200 μM) was added. After 4 h incubation at 37 °C, the amounts of released p-nitrophenolate were measured at 405 nm. The IC50 values of test compounds were calculated by plotting three independent experiments using the program Prism 5.0 [38].

[2] = target: T2, human soluble ENPP1 (Homo sapiens, UniProt P22413); test: Enzyme-based ENPP1 inhibitory assay (pNP-TMP substrate, 405 nm); assay type: biochemical; settings: for inhibition at 10 µM: pH 9, 10 μM compound, 200 μM pNP-TMP, pH 9.0, 37 °C; for IC50: three independent enzymatic assays, read-out: IC50 against ENPP1 (enzymatic assay)
T2 construct: addition of 20 ng of human soluble ENPP1; His; made in house; host or cells: 293-F cells (protein harvested from the medium)
T2 sequence (P22413 103-925 limits assumed): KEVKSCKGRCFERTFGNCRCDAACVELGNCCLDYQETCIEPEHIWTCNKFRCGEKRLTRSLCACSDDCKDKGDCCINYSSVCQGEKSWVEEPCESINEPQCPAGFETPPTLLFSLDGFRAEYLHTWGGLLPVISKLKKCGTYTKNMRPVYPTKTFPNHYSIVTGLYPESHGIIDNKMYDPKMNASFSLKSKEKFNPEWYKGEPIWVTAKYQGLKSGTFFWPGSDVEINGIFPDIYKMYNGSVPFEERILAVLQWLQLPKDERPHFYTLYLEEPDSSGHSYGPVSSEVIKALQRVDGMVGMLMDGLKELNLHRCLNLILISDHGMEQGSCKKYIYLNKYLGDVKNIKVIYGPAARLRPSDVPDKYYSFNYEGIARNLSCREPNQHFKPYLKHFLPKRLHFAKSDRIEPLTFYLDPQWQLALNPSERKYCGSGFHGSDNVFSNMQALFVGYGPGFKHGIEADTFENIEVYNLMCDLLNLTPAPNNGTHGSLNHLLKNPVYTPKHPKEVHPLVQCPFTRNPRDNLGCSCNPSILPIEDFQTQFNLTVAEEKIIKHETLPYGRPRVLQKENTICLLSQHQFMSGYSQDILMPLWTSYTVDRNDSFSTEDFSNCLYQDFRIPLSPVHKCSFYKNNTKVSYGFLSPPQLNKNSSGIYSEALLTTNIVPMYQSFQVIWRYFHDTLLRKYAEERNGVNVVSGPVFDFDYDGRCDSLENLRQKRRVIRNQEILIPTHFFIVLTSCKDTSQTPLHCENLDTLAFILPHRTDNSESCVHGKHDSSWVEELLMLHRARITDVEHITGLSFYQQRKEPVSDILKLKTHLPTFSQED
Protocol: In total, 1 mg hENPP1-HIS DNA using polyethylenimine at a DNA:PEI ratio of 1:3 was transfected into 1 L of 293-F cells in 293 freestyle medium. The medium was harvested after five days and filter-sterilized. […] Approximately 1 mg of purified protein was obtained from the 1-liter culture. The quality of the protein purification was validated by SDS-PAGE analysis (see Figure S1).
The initial screenings were carried out at 37 °C in a total volume of 0.1 mL of the following incubation mixture: 1 mM CaCl2, 200 μM ZnCl2, 50 mM Tris, pH 9.0, and 10 μM of each test compound. The enzyme reactions began with the addition of 20 ng of human soluble ENPP1, then incubated at 37 °C for 10 min and initiated by the addition of 200 μM pNP-TMP. The production of p-nitrophenol was measured after 30 min reaction at 405 nm. […] For the blank samples, the enzyme was added at the end of the reaction and read immediately. The IC50 values of test compounds were calculated by plotting three independent experiments using the program Prism 5.0. Incubation and operation conditions remained the same as those described above.

[3] = system: IFN-β in serum; test: IFN-β in mouse serum by ELISA after i.v. administration; assay type: in vivo, BALB/c nude mice; settings: blood after 0.5 h
Protocol: The animal studies were conducted with the approval of the Animal Care and Use Committee at Fudan University. BALB/c nude mice (6−8 weeks) were randomized into three groups (n = 3, with a total tumor number of 9). Free cGAMP (at dose of 5 mg/kg) and cGAMP-compound 4e (at doses of 5 mg/kg cGAMP and 0.5 mg/kg compound 4e), respectively, were injected intravenously (i.v.) into mice via tail vein. After i.v. administration, mouse blood samples were collected from ophthalmic vein after 0.5 h and centrifuged at 500× g for 20 min. The concentration of IFN-β in the serum was determined by mouse ELISA kits, according to the instruction manual.

[4] = system: LO2 cell line; test: Cell viability assay (CCK8), LO2; assay type: cell-based
Protocol: (§1) Next, the culture was replaced by fresh DMEM medium (200 μL) and the compound (10 μL) was added. After forty-eight hours, the medium was replaced by PBS (180 μL) mixture with CCK8 solution (20 μL) in each well. Cell viability was evaluated by testing the OD450 nm. The data were processed by GraphPad Prism 7.0 [45, 46].

[5] = system: 4T1 cell line; test: Cell proliferation assay (CCK8), 4T1; assay type: cell-based; settings: CCK8, 48 h, read-out: IC50 against 4T1 cell line
Protocol: as §1, with “In total, 1 × 10^4 cells (4T1, LO2 and 293T) were plated in 96-well flat-bottom plates in a final volume of 200 μL DMEM supplemented with 10% FBS and cultured for 24 h. Next,” for “Next,”

[6] = system: 293T cell line; test: Cell viability assay (CCK8), 293T; assay type: cell-based
Protocol: as §1

SMILES: COC(=O)c1ccc2c(=O)[nH]c(CSc3nc4nc(OC)ccc4[nH]3)nc2c1 [Compound 4d, Methyl 2-(((5-methoxy-1H-imidazo[4,5-b]pyridin-2-yl)thio)methyl)-4-oxo-3,4-dihydroquina-zoline-7-carboxylate]
IC50 [1]: 3.34 µM | inhibition at 10 µM [2]: > 90% | IC50 [2]: 0.694 µM

SMILES: COc1ccc2nc(CSc3nc4nc(OC)ccc4[nH]3)[nH]c(=O)c2c1 [Compound 4b, 6-Methoxy-2-(((5-methoxy-1H-imidazo[4,5-b]pyridin-2-yl)thio)methyl)quinaz-olin-4(3H)-one]
inhibition at 10 µM [2]: 76.5%

SMILES: COc1ccc2[nH]c(SCc3nc4cccc(F)c4c(=O)[nH]3)nc2n1 [Compound 4a, 5-Fluoro-2-(((5-methoxy-1H-imidazo[4,5-b]pyridin-2-yl)thio)methyl)quinazol-in-4(3H)-one]
inhibition at 10 µM [2]: 72.2%

SMILES: Nc1nc2c(ncn2[C@@H]2O[C@@H]3COP(=O)(O)O[C@H]4[C@@H](O)[C@H](n5cnc6c(N)ncnc65)O[C@@H]4COP(=O)(O)O[C@@H]2[C@@H]3O)c(=O)[nH]1 [cGAMP, 2′,3′-cyclic GMP-AMP, reference compound]
IFN-β in serum, free cGAMP compared with model mice ([3]; 5 mg/kg cGAMP i.v.): upregulation

SMILES: N.N.[Cl][Pt][Cl] [Cisplatin, cisplatin, reference compound]
IC50 [5]: 3.2 µM

SMILES: COc1ccc2[nH]c(SCc3nc4c(C)cccc4c(=O)[nH]3)nc2n1 [Compound 4g, 2-(((5-Methoxy-1H-imidazo[4,5-b]pyridin-2-yl)thio)methyl)-8-methylquinazoli-n-4(3H)-one]
inhibition at 10 µM [2]: 72.7%

SMILES: COc1ccc2[nH]c(SCc3nc4c(Br)cccc4c(=O)[nH]3)nc2n1 [Compound 4h, 8-Bromo-2-(((5-methoxy-1H-imidazo[4,5-b]pyridin-2-yl)thio)methyl)quinazoli-n-4(3H)-one]
inhibition at 10 µM [2]: 55.5%

Now from value to compound, other results behind:

inhibition at 10 µM [2]: 75.4%
SMILES: COc1ccc2[nH]c(SCc3nc4cc(C)ccc4c(=O)[nH]3)nc2n1 [Compound 4c, 2-(((5-Methoxy-1H-imidazo[4,5-b]pyridin-2-yl)thio)methyl)-7-methylquinazoli-n-4(3H)-one]

inhibition at 10 µM [2]: 52.9%
SMILES: COc1ccc2[nH]c(SCc3nc4cc(Cl)ccc4c(=O)[nH]3)nc2n1 [Compound 4f, 7-Chloro-2-(((5-methoxy-1H-imidazo[4,5-b]pyridin-2-yl)thio)methyl)quinazolin-4(3H)-one]

IC50 [1]: < 1 µM and 0.732 µM | IC50 ([5]; Mus musculus, 4T1): 2.99 µM | inhibition at 10 µM [2]: > 90% | IC50 [2]: 0.188 µM and < 1 µM
SMILES: COc1ccc2[nH]c(SCc3nc4cc(F)ccc4c(=O)[nH]3)nc2n1 [Compound 4e, 7-Fluoro-2-(((5-methoxy-1H-imidazo[4,5-b]pyridin-2-yl)thio)methyl)quinazolin-4(3H)-one]
cytotoxic effect (% inhibition) against LO2 ([4]; 50 μM, CCK8, 48 h): 15.33% | cytotoxic effect on LO2 (in words) ([4]; highest concentration 50 μM): nonsignificant cytotoxic effect; also recorded: negligible cytotoxic effects | IFN-β expression level in serum, cGAMP-compound 4e group compared with free-cGAMP group ([3]; 5 mg/kg cGAMP and 0.5 mg/kg compound 4e i.v.): higher | cytotoxic effect (% inhibition) against 293T ([6]; 50 μM, CCK8, 48 h): 9.35% | cytotoxic effect on 293T (in words) ([6]; highest concentration 50 μM): nonsignificant cytotoxic effect; also recorded: negligible cytotoxic effects

From publication PMC9266353, “Development of Novel Ecto-Nucleotide Pyrophosphatase/Phosphodiesterase 1 (ENPP1) Inhibitors for Tumor Immunotherapy” (International Journal of Molecular Sciences, 2022)
